Test results reported in patent US5770603A, “Quinazoline derivatives” (Zeneca Limited, priority 1996, dated 1998).
Where “and” joins values, the source holds several entries; their conditions need not be identical. Equal entries are not always repeated.

Columns and labels:
[1] = tested on: human naso-pharyngeal cancer cell line KB; assay: Test (b): in vitro inhibition of EGF-stimulated growth of the human naso-pharyngeal cancer cell line KB; assay type: cell-based; details: 72 h, EGF 10 ng/ml, 3 days incubation, MTT, example values stated as approximate
Experimental: (b) An in vitro assay which determines the ability of a test compound to inhibit the EGF-stimulated growth of the human naso-pharyngeal cancer cell line KB.
Cell growth was determined after incubation for 3 days by the extent of metabolism of MTT tetrazolium dye to furnish a bluish colour. Cell growth was then determined in the presence of EGF (10 ng/ml) or in the presence of EGF (10 ng/ml) and a test compound at a range of concentrations. An lC50 value could then be calculated.

[2] = biological target: T1, EGF receptor tyrosine kinase (Homo sapiens, UniProt P00533); assay: Test (a): in vitro inhibition of the enzyme EGF receptor tyrosine kinase (partially purified from A-431 cells); assay type: biochemical; details: example values stated as approximate
T1 construct: Receptor tyrosine kinase was obtained in partially purified form from A-431 cells; endogenous in cells; host or cells: A-431 cells (human vulval carcinoma), Triton X-100 solubilised pelleted material
Experimental: (a) An in vitro assay which determines the ability of a test compound to inhibit the enzyme EGF receptor tyrosine kinase. Receptor tyrosine kinase was obtained in partially purified form from A-431 cells (derived from human vulval carcinoma) by the procedures described below which are related to those described by Carpenter et al, J. Biol. Chem., 1979, 254, 4884, Cohen et al, J. Biol. Chem., 1982, 257, 1523 and by Braun et al., J. Biol. Chem., 1984, 259, 2051.
A-431 cells were grown to confluence using Dulbecco's modified Eagle's medium (DMEM) containing 5% fetal calf serum (FCS). The obtained cells were homogenised in a hypotonic borate/EDTA buffer at pH 10.1. The homogenate was centrifuged at 400 g for 10 minutes at 0°-4° C. The supernatant was centrifuged at 25,000 g for 30 minutes at 0°-4° C. The pelleted material was suspended in 30 mM Hepes buffer at pH 7.4 containing 5% glycerol, 4 mM benzamidine and 1% Triton X-100, stirred for 1 hour at 0°-4° C., and recentrifuged at 100,000 g for 1 hour at 0°-4° C. The supernatant, containing solubilised receptor tyrosine kinase, was stored in liquid nitrogen.
For test purposes 40 μl of the enzyme solution so obtained was added to a mixture of 400 μl of a mixture of 150 mM Hepes buffer at pH 7.4, 500 μM sodium orthovanadate, 0.1% Triton X-100, 10% glycerol, 200 μl water, 80 μl of 25 mM DTT and 80 μl of a mixture of 12.5 mM manganese chloride, 125 mM magnesium chloride and distilled water. There was thus obtained the test enzyme solution.
Equal volumes of this solution and a solution of epidermal growth factor (EGF; 20 μg/ml) were mixed.
[y-^32 P]ATP (3000 Ci/mM, 250 μCi) was diluted to a volume of 2 ml by the addition of a solution of ATP (100 μM) in distilled water. An equal volume of a 4 mg/ml solution of the peptide […]in a mixture of 40 mM Hepes buffer at pH 7.4, 0.1% Triton X-100 and 10% glycerol was added.
The test compound/EGF mixture solution (5 μl) was added to the test enzyme solution (10 μl) and the mixture was incubated at 0°-4° C. for 30 minutes. The ATP/peptide mixture (10 μl) was added and the mixture was incubated at 25° C. for 10 minutes. The phosphorylation reaction was terminated by the addition of 5% trichloroacetic acid (40 μl) and bovine serum albumin (BSA; 1 mg/ml, 5 μl). The mixture was allowed to stand at 4° C. for 30 minutes and then centrifuged. An aliquot (40 μl) of the supernatant was placed onto a strip of Whatman p 81 phosphocellulose paper. The strip was washed in 75 mM phosphoric acid (4×10 ml) and blotted dry. Radioactivity present in the filter paper was measured using a liquid scintillation counter (Sequence A). The reaction sequence was repeated in the absence of the EGF (Sequence B) and again in the absence of the test compound (Sequence C).
Receptor tyrosine kinase inhibition was calculated as follows: [formula]

[3] = tested on: xenografts of the human vulval epidermoid carcinoma cell line A-431; assay: Test (c): in-vivo inhibition of growth of A-431 xenografts in athymic nude mice; set-up: species or system human (xenograft in athymic nude mice); details: Mus musculus, daily dosing, usually oral, tumour volume inhibition relative to untreated controls
Experimental: (c) An in-vivo assay in a group of athymic nude mice (strain ONU:Alpk) which determines the ability of a test compound (usually administered orally as a ball-milled suspension in 0.5% polysorbate) to inhibit the growth of xenografts of the human vulval epidermoid carcinoma cell line A-431. A-431 cells were maintained in culture in DMEM supplemented with 5% FCS nd 2 mM glutamine. Freshly cultured cells were harvested by trypsinization and injected subcutaneously (10 million cells/0.1 ml/mouse) into both flanks of a number of donor nude mice. When sufficient tumour material was available (after approximately 9 to 14 days), fragments of tumour tissue were transplanted in the flanks of recipient nude mice (test day 0). […] In some studies the dosing of the test compound was continued beyond test day 19, for example to test day 26. In each case, on the following test day the animals were killed and the final tumour volume was calculated from measurements of the length and width of the tumours. Results were calculated as a percentage inhibition of tumour volume relative to untreated controls.

[4] = tested on: transplanted human mammary carcinoma which expresses EGF receptor tyrosine kinase; details: athymic nude mice; EGF receptor tyrosine kinase expressing; Toi et al., 1990; cited from earlier work
[5] = tested on: carcinoma which does not express EGF receptor tyrosine kinase; details: carcinoma not expressing EGF receptor tyrosine kinase; Toi et al., 1990; cited from earlier work
[6] = tested on: EGF receptor tyrosine kinase; details: Fry et al., Science, 1994, 265, 1093; cited from earlier work

T1 sequence (P00533 25-1210): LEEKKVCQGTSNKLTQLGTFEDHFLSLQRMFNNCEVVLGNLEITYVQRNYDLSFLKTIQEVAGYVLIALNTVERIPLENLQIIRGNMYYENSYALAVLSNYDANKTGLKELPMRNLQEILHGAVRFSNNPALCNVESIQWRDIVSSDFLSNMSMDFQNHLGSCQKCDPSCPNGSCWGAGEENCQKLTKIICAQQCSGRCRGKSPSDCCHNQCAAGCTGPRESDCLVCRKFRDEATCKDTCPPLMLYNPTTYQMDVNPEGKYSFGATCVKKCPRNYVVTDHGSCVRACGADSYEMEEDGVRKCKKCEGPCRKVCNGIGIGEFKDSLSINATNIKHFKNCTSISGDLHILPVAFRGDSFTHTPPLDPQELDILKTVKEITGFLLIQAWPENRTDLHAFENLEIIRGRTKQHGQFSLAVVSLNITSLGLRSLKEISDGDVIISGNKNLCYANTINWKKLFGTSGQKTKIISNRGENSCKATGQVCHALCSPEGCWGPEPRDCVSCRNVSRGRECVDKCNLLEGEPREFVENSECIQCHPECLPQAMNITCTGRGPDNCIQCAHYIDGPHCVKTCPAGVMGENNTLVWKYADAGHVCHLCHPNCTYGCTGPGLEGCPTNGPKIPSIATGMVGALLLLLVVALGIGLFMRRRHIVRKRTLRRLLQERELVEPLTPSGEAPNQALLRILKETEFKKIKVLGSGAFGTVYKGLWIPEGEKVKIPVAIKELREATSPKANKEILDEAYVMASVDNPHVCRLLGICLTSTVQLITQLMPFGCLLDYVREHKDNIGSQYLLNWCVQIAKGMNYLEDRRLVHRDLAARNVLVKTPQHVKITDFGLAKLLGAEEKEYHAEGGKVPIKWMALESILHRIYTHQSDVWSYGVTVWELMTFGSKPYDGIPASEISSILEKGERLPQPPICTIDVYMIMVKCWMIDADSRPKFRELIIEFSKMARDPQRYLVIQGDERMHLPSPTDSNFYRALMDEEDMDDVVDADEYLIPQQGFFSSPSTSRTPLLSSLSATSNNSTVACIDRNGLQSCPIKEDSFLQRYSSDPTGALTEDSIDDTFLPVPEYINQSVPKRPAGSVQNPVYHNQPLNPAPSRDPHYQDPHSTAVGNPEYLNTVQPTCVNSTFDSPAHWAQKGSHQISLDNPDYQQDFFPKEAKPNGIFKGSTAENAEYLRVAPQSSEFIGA

| SMILES | IC50 [1] | IC50 [2] | other results |
| --- | --- | --- | --- |
| COc1cc2ncnc(Nc3ccc(F)c(Cl)c3)c2cc1OCCC1OCCO1 [Example 3, 4-(3'-chloro-4'-fluoroanilino)-6-[2-(1,3-dioxolan-2-yl)ethoxy]-7-methoxyquinazoline] | 0.33 µM | 0.01 µM | ED50 [3]: ~50 mg/kg |
| COc1cc2ncnc(Nc3ccc(F)c(Cl)c3)c2cc1OCC1(C)COC1 [Example 10, 4-(3'-chloro-4'-fluoroanilino)-7-methoxy-6-(3-methyloxetan-3-ylmethoxy)quinazoline] | 0.065 µM | 0.01 µM and 0.034 µM |  |
| COc1cc2ncnc(Nc3ccc(F)c(Cl)c3)c2cc1OCCCC1OCCO1 [Example 4, 4-(3'-chloro-4'-fluoroanilino)-6-[3-(1,3-dioxolan-2-yl)propoxy]-7-methoxyquinazoline] | 0.14 µM | 0.04 µM |  |
| O=CN/C=C/c1cc(O)ccc1O [erbstatin] |  |  | growth of transplanted human mammary carcinoma (in words) [4]: specifically attenuates the growth; growth of another carcinoma (in words) [5]: without effect on the growth |
| COc1cc2ncnc(Nc3cccc(Br)c3)c2cc1OC [4-(3'-bromoanilino)-6,7-dimethoxyquinazoline] |  |  | inhibitor of EGF receptor tyrosine kinase (in words) [6]: highly potent inhibitor |
| COc1cc2ncnc(Nc3ccc(F)c(Cl)c3)c2cc1OCCC1OCCCO1 [Example 8, 4-(3'-chloro-4'-fluoroanilino)-6-[2-(1,3-dioxan-2-yl)ethoxy]-7-methoxyquinazoline] | 0.04 µM | 0.005 µM |  |
| COc1cc2ncnc(Nc3ccc(F)c(Cl)c3)c2cc1OCC1OCCO1 [Example 2, 4-(3'-chloro-4'-fluoroanilino)-6-(1,3-dioxolan-2-ylmethoxy)-7-methoxyquinazoline] | 0.2 µM | 0.01 µM |  |
| COc1cc2ncnc(Nc3ccc(F)c(Cl)c3)c2cc1OCC1COCO1 (stereo not shown) [Example 5, 4-(3'-chloro-4'-fluoroanilino)-6-(1,3-dioxolan-4-ylmethoxy)-7-methoxyquinazoline] | 0.14 µM | 0.015 µM |  |
